Laboratory results reported in PMC9144445, “Substrate-Based Design of Cytosolic Nucleotidase IIIB Inhibitors and Structural Insights into Inhibition Mechanism” (Pharmaceuticals, 2022).

What was measured:
human cN-IIIA = human cN-IIIA (Homo sapiens, UniProt Q9H0P0); test: IC50 determination for cN-IIIA (MGP assay); format: biochemical; details: for IC50: m7GMP 100 µM, cN-IIIA 40 nM, 25 min, MGP assay
Method: To determine the inhibitory potency towards cN-IIIA, compounds were evaluated using the MGP assay in an analogous way as described above for cN-IIIB.
All experiments were performed in triplicate.

[1] = tested on: endogenous cN-IIIB, m^7GMP dephosphorylation in cytoplasmic HEK 293T cell extracts; test: m7GMP decay in HEK 293T cell extract in presence of inhibitors (LC–MS/MS); format: biochemical, human; details: compound 100 µM, [2H]-m7GMP 4 µM, 37 °C, up to 60 min
Method: The expression of cN-IIIB was verified by Western blot and was the most abundant in HEK 293T among four tested cell lines (Figure 9A). The cN-IIIA isoform was likewise abundantly expressed in the HEK cell line. The stability and activity of the inhibitors were tested in HEK 293T cell extracts using mass spectrometry analysis. The evaluated set of compounds contained some of the identified cN-IIIB inhibitors: 4, 5, 5a, and 5d of varying inhibitory potencies as well as compound S16 with no inhibitory potency (negative control). Initially, we verified the stability of the compounds in the extracts. The LC–MS/MS analyses confirmed that all analyzed compounds were stable in the lysate for at least 60 min (Figure 9B). Then, we monitored the time-dependent degradation of heavy m^7GMP, deuterated within the methyl group ([^2H]-m^7GMP]) in the extracts, in the presence or absence of the evaluated compounds (100 µM each, Figure 9C).
A typical reaction contained 1 µL–40 µM (final concentrations 4 µM) of [^2H]m^7GMP and 9 µL cell extracts. […]
Chromatographic separation of nucleotides and their metabolites was achieved on a ZORBAX Eclipse Plus C18 analytical column (3.5 μm, 4.6 mm × 100 mm, Agilent) equipped with Eclipse Plus-C18 analytical guard column (5.0 μm, 4.6 × 12.5 mm). […] Then, the analytes in the HPLC eluate were monitored by MS in multiple reaction monitoring (MRM) mode. […]

mouse eIF4E = mouse eIF4E (Mus musculus, UniProt P63073); test: eIF4E competition binding assay with pyrene-labelled fluorescent probe; details: for EC50: mouse eIF4E 400 nM, pyrene-labelled probe 75 nM
mouse eIF4E, sequence (P63073 whole entry): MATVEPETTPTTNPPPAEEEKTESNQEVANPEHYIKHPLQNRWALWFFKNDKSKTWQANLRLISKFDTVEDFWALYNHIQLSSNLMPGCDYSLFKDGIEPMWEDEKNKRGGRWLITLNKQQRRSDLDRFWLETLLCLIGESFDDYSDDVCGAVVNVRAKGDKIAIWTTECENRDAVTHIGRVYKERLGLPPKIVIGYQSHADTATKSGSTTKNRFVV

Row | SMILES | IC50 (human cN-IIIA) | EC50 (mouse eIF4E) | Affinity to eIF4E compared to m7GMP (mouse eIF4E; comparison of EC50 values) | SI (cN-IIIB/eIF4E) (mouse eIF4E; ratio of IC50 for cN-IIIB and EC50 for eIF4E) | SI (cN-IIIB/cN-IIIA) (human cN-IIIA; ratio of IC50 for cN-IIIB and IC50 for cN-IIIA) | Inhibition of m7GMP decay in HEK 293T cell extract (in words) [1]
1 | Nc1nc2c(c(=O)[nH]1)[n+](Cc1ccccc1)cn2[C@@H]1O[C@H](COP(=O)([O-])O)[C@@H](O)[C@H]1O [Compound 5] | 113 ± 38.5 µM |  |  |  |  | 
2 | C[n+]1cn([C@@H]2O[C@H](Cn3cc(CCP(=O)([O-])O)nn3)[C@@H](O)[C@H]2O)c2nc(N)[nH]c(=O)c21 [Compound S16] |  |  |  |  |  | almost complete decay of m^7GMP was observed within the first 50 min
3 | Cc1cccc(C[n+]2cn([C@@H]3O[C@H](COP(=O)([O-])O)[C@@H](O)[C@H]3O)c3nc(N)[nH]c(=O)c32)c1 [Compound 5a] | 127 ± 35.6 µM | 22.6 ± 4.3 µM |  |  |  | 

More lines, in order of falling IC50 (human cN-IIIA), values ahead:

Row | IC50 (human cN-IIIA) | EC50 (mouse eIF4E) | Affinity to eIF4E compared to m7GMP (mouse eIF4E; comparison of EC50 values) | SI (cN-IIIB/eIF4E) (mouse eIF4E; ratio of IC50 for cN-IIIB and EC50 for eIF4E) | SI (cN-IIIB/cN-IIIA) (human cN-IIIA; ratio of IC50 for cN-IIIB and IC50 for cN-IIIA) | SMILES | Inhibition of m7GMP decay in HEK 293T cell extract (in words) [1]
4 | 106 ± 26.6 µM | 39.9 ± 8.5 µM |  |  |  | Nc1nc2c(c(=O)[nH]1)[n+](Cc1ccc(F)c(F)c1)cn2C1OC(COP(=O)([O-])O)C(O)C1O (centres unmarked) [Compound 5d] | 
5 | 42.5 ± 8.3 µM | 118 ± 66.4 µM | at least two-fold lower affinity | 0.06 | 0.17 | Nc1nc2c(c(=O)[nH]1)[n+](Cc1ccc(C(F)(F)F)cc1)cn2[C@@H]1O[C@H](COP(=O)([O-])O)[C@@H](O)[C@H]1O [Compound 5g, 7-(4-Trifluoromethylbenzyl)guanosine 5’-Monophosphate] | 
